Converted amounts (≈) assume the structure as drawn. Read-outs that look alike come from different tables or passages of the source.
What was measured:
Assay in all cases: MIC, broth microdilution
[1] = tested on: E. coli GC 1073; conditions: Escherichia coli, GC1073, read-out: MINIMAL INHIBITORY CONCENTRATION MIC, pre-incubated in Water
[2] = tested on: P. aeruginosa GC 2214; conditions: Pseudomonas aeruginosa
[3] = tested on: S. aureus GC 1079; conditions: for MIC: Staphylococcus aureus
[4] = tested on: E. coli GC 2271; conditions: Escherichia coli, GC2271, read-out: MINIMAL INHIBITORY CONCENTRATION MIC, pre-incubated in Water
[5] = tested on: E. coli GC 6465; conditions: Escherichia coli, GC6465, read-out: MINIMAL INHIBITORY CONCENTRATION MIC, pre-incubated in Water
[6] = tested on: E. coli GC 3226; conditions: Escherichia coli, GC3226, read-out: MINIMAL INHIBITORY CONCENTRATION MIC, pre-incubated in Water
[7] = tested on: S. epidermidis GC 4935; conditions: Staphylococcus epidermidis
[8] = tested on: E. faecium GC 2243; conditions: for MIC: Enterococcus faecium
[9] = tested on: E. faecalis GC 2267; conditions: for MIC: Enterococcus faecalis
[10] = tested on: E. faecalis GC 2265; conditions: for MIC: Enterococcus faecalis
[11] = tested on: E. coli GC 2233; conditions: Escherichia coli, GC2233, read-out: MINIMAL INHIBITORY CONCENTRATION MIC, pre-incubated in Water
[12] = tested on: S. aureus GC 6335; conditions: for MIC: Staphylococcus aureus
[13] = tested on: E. coli GC 2270; conditions: Escherichia coli, GC2270, read-out: MINIMAL INHIBITORY CONCENTRATION MIC, pre-incubated in Water
[14] = tested on: c. albicans GC 3066
[15] = tested on: E. coli GC 4560; conditions: Escherichia coli, GC4560, read-out: MINIMAL INHIBITORY CONCENTRATION MIC, pre-incubated in Water
[16] = tested on: S. aureus GC 1131; conditions: Staphylococcus aureus
[17] = tested on: E. coli GC 2203; conditions: Escherichia coli, GC2203, read-out: MINIMAL INHIBITORY CONCENTRATION MIC, pre-incubated in Water
[18] = tested on: E. coli GC 2272; conditions: Escherichia coli, GC2272, read-out: MINIMAL INHIBITORY CONCENTRATION MIC, pre-incubated in Water
[19] = tested on: S. aureus GC 6467; conditions: Staphylococcus aureus
[20] = tested on: S. aureus GC 6469; conditions: for MIC: Staphylococcus aureus

MIC [1]: > 64 µg/mL
MIC ([2]; GC2214, read-out: MINIMAL INHIBITORY CONCENTRATION MIC, pre-incubated in Mouse Serum): > 64 µg/mL
MIC ([2]; GC2214, read-out: MINIMAL INHIBITORY CONCENTRATION MIC, pre-incubated in Water): > 64 µg/mL
MIC ([3]; GC1079, read-out: MINIMAL INHIBITORY CONCENTRATION MIC, pre-incubated in Mouse Serum): 2 µg/mL (≈ 2.64 µM)
MIC ([3]; GC1079, read-out: MINIMAL INHIBITORY CONCENTRATION MIC, pre-incubated in Water): 4 µg/mL (≈ 5.28 µM)
MINIMAL INHIBITORY CONCENTRATION MIC ([3]; pre-incubated in Mouse Serum): 4 UG/ML
MIC [4]: > 64 µg/mL
MIC [5]: > 64 µg/mL
MIC [6]: > 64 µg/mL
MIC ([7]; GC4935, read-out: MINIMAL INHIBITORY CONCENTRATION MIC, pre-incubated in Mouse Serum): 4 µg/mL (≈ 5.28 µM)
MIC ([7]; GC4935, read-out: MINIMAL INHIBITORY CONCENTRATION MIC, pre-incubated in Water): 8 µg/mL (≈ 10.6 µM)
MIC ([8]; GC2243, read-out: MINIMAL INHIBITORY CONCENTRATION MIC, pre-incubated in Mouse Serum): 2 µg/mL (≈ 2.64 µM)
MIC ([8]; GC2243, read-out: MINIMAL INHIBITORY CONCENTRATION MIC, pre-incubated in Water): 4 µg/mL (≈ 5.28 µM)
MINIMAL INHIBITORY CONCENTRATION MIC ([8]; pre-incubated in Mouse Serum): 4 UG/ML
MIC ([9]; GC2267, read-out: MINIMAL INHIBITORY CONCENTRATION MIC, pre-incubated in Mouse Serum): 2 µg/mL (≈ 2.64 µM)
MIC ([9]; GC2267, read-out: MINIMAL INHIBITORY CONCENTRATION MIC, pre-incubated in Water): 4 µg/mL (≈ 5.28 µM)
MINIMAL INHIBITORY CONCENTRATION MIC ([9]; pre-incubated in Mouse Serum): 4 UG/ML
MIC ([10]; GC2265, read-out: MINIMAL INHIBITORY CONCENTRATION MIC, pre-incubated in Mouse Serum): 2 µg/mL (≈ 2.64 µM)
MIC ([10]; GC2265, read-out: MINIMAL INHIBITORY CONCENTRATION MIC, pre-incubated in Water): 8 µg/mL (≈ 10.6 µM)
MINIMAL INHIBITORY CONCENTRATION MIC ([10]; pre-incubated in Mouse Serum): 4 UG/ML
MIC [11]: > 64 µg/mL
MIC ([12]; GC6335, read-out: MINIMAL INHIBITORY CONCENTRATION MIC, pre-incubated in Mouse Serum): 2 µg/mL (≈ 2.64 µM)
MIC ([12]; GC6335, read-out: MINIMAL INHIBITORY CONCENTRATION MIC, pre-incubated in Water): 4 µg/mL (≈ 5.28 µM)
MINIMAL INHIBITORY CONCENTRATION MIC ([12]; pre-incubated in Mouse Serum): 4 UG/ML
MIC [13]: > 64 µg/mL
MIC ([14]; Candida albicans, GC3066, read-out: MINIMAL INHIBITORY CONCENTRATION MIC): > 64 µg/mL
MINIMAL INHIBITORY CONCENTRATION MIC ([14]; pre-incubated in Mouse Serum): >64 UG/ML
MIC [15]: 8 µg/mL (≈ 10.6 µM)
MIC ([16]; GC1131, read-out: MINIMAL INHIBITORY CONCENTRATION MIC, pre-incubated in Mouse Serum): 2 µg/mL (≈ 2.64 µM)
MIC ([16]; GC1131, read-out: MINIMAL INHIBITORY CONCENTRATION MIC, pre-incubated in Water): 4 µg/mL (≈ 5.28 µM)
MIC [17]: > 64 µg/mL
MIC [18]: > 64 µg/mL
MIC ([19]; GC6467, read-out: MINIMAL INHIBITORY CONCENTRATION MIC, pre-incubated in Mouse Serum): 4 µg/mL (≈ 5.28 µM)
MIC ([19]; GC6467, read-out: MINIMAL INHIBITORY CONCENTRATION MIC, pre-incubated in Water): 8 µg/mL (≈ 10.6 µM)
MIC ([20]; GC6469, read-out: MINIMAL INHIBITORY CONCENTRATION MIC, pre-incubated in Mouse Serum): 2 µg/mL (≈ 2.64 µM)
MIC ([20]; GC6469, read-out: MINIMAL INHIBITORY CONCENTRATION MIC, pre-incubated in Water): 4 µg/mL (≈ 5.28 µM)
MINIMAL INHIBITORY CONCENTRATION MIC ([20]; pre-incubated in Mouse Serum): 4 UG/ML
Compound: CN(C)c1cc(NC(=O)CN(C(=O)OCOC(=O)CC(C)(C)C)C(C)(C)C)c(O)c2c1C[C@H]1C[C@H]3[C@H](N(C)C)C(O)=C(C(N)=O)C(=O)[C@@]3(O)C(O)=C1C2=O [Example 42, ({[(2-{[(5aR,6aS,7S,10aS)-9-(aminocarbonyl)-4,7-bis(dimethylamino)-1,8,10a,11-tetrahydroxy-10,12-dioxo-5,5a,6,6a,7,10,10a,12-octahydrotetracen-2-yl]amino}-2-oxoethyl)(tert-butyl)amino]carbonyl}oxy)methyl 3,3-dimethylbutanoate]

Source: patent US20070049564A1 (Wyeth, priority 2005, published 2007)
